Several values for one entry are separate records, joined by “and”; a condition that tells them apart may be missing. Identical values can stand only once.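 Assay format: 96-well plates, 48-hour exposure. Abbreviation: GI50, concentration required for 50% inhibition of growth. The concentration for full growth arrest is given as TGI.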
Columns and labels:
Assay in all cases: growth of human tumour cells (NCI), 48 h
HCT-15 colon = test system: HCT-15 colon
HOP-62 NSCLC = test system: HOP-62 NSCLC
K-562 leukemia = test system: K-562 leukemia
RPMI-8226 leukemia = test system: RPMI-8226 leukemia
SF-268 CNS = test system: SF-268 CNS
SN12C renal = test system: SN12C renal
TK-10 renal = test system: TK-10 renal
UO-31 renal = test system: UO-31 renal
RXF 393 renal = test system: RXF 393 renal
SNB-75 CNS = test system: SNB-75 CNS

| SMILES | GI50 (HCT-15 colon) | TGI (HCT-15 colon) | GI50 (HOP-62 NSCLC) | TGI (HOP-62 NSCLC) | GI50 (K-562 leukemia) | TGI (K-562 leukemia) | GI50 (RPMI-8226 leukemia) | TGI (RPMI-8226 leukemia) | GI50 (SF-268 CNS) | TGI (SF-268 CNS) | GI50 (SN12C renal) | TGI (SN12C renal) | GI50 (TK-10 renal) | TGI (TK-10 renal) | GI50 (UO-31 renal) | TGI (UO-31 renal) | TGI (RXF 393 renal) | TGI (SNB-75 CNS) | GI50 (RXF 393 renal) | GI50 (SNB-75 CNS) |
| --- | --- | --- | --- | --- | --- | --- | --- | --- | --- | --- | --- | --- | --- | --- | --- | --- | --- | --- | --- | --- |
| O=C1c2ccccc2-c2c1c1c(O)cccc1n2-c1ccccc1 | > 100000 nM | > 100 µM | 66.3 µM | > 100 µM | > 100000 nM | > 100 µM | 31.8 nM | 93.8 µM | > 100000 nM | > 100 µM | > 100000 nM | > 100 µM | > 100000 nM | > 100 µM | > 100000 nM | > 100 µM |  |  |  |  |
| O=C(NC1C2CC3CC(C2)CC1C3)c1cc(/C=C/c2ccccc2)[nH]c(=S)n1 (stereo not given) |  |  |  | > 100 µM |  | > 100 µM |  | > 100 µM |  | > 100 µM |  |  |  | > 100 µM |  | > 100 µM | > 100 µM | > 100 µM |  |  |
| COc1ccc(OC(C(=O)O)c2ccccc2)c2c1CCCC2=O (stereo not given) |  | > 100 µM |  | > 100 µM |  | > 100 µM |  | > 100 µM |  | > 100 µM |  | > 100 µM |  | > 100 µM |  | > 100 µM |  |  |  |  |
| OC1C2CCC1C1C3C=CC(C3)C21 (stereo not given) |  | > 100 µM |  | > 100 µM |  | > 100 µM |  | > 100 µM |  | > 100 µM |  |  |  | > 100 µM |  | > 100 µM | > 100 µM | > 100 µM |  |  |
| Cc1cc2c(c3oc(C4(C)OC4C4OC4C)cc(=O)c13)C(=O)c1c(O)c(C3CC(C)(N(C)C)C(O)C(C)O3)cc(C3CC(N(C)C)C(O)C(C)O3)c1C2=O (stereo not given) |  |  |  |  | 0.0838 nM and 0.124 nM | 0.0147 µM and 0.0192 µM and 0.0348 µM |  | 0.0142 µM and 0.0557 µM and 0.00725 µM |  |  |  |  | 0.27 nM | 0.0116 µM and 0.0501 µM | 6.38 nM | 0.0143 µM and 0.00225 µM | 7.97e-05 µM and 0.000406 µM |  | < 0.01 nM |  |
| c1ccc2c(c1)[nH]c1c2nc2ncccn21 |  |  |  | > 100 µM |  | > 100 µM |  |  |  | > 100 µM |  | > 100 µM |  | > 100 µM |  | > 100 µM | > 100 µM | > 100 µM |  |  |
| CC(=O)C1(N=Nc2ccc(S(N)(=O)=O)cc2)CCOC1=O (stereo not given) |  | > 100 µM |  | > 100 µM |  |  |  |  |  | > 100 µM |  | > 100 µM |  | > 100 µM |  | > 100 µM | > 100 µM | > 100 µM |  |  |
| O=c1oc(=O)c2oc3ccccc3oc1=2 |  | > 100 µM |  | > 100 µM |  | > 100 µM |  |  |  | > 100 µM |  | > 100 µM |  | > 100 µM |  | > 100 µM | > 100 µM | > 100 µM |  |  |
| O=S(O)CCCSSc1ccccc1 |  | > 100 µM |  | > 100 µM |  | > 100 µM |  |  |  | > 100 µM |  | > 100 µM |  | > 100 µM |  | > 100 µM | > 100 µM | 88.2 µM |  |  |
| S=c1nc(Cl)cc2[nH]c(Cl)cn12 |  | > 100 µM |  | > 100 µM |  |  |  | 43.3 µM |  | > 100 µM |  | > 100 µM |  | > 100 µM |  | > 100 µM | > 100 µM | 13.8 µM |  |  |
| CN(C)CCCNC(=O)c1cncnc1Nc1ccc(OCc2cccc(F)c2)c(Cl)c1 | 1380 nM | 2.75 µM | 1.75 µM | 3.48 µM | 1740 nM | 3.73 µM |  |  | 1810 nM | 3.34 µM | 1670 nM | 3.14 µM | 1840 nM | 3.48 µM | 1460 nM | 2.77 µM | 2.87 µM | 3.22 µM | 1510 nM | 1640 nM |
| CCOC(=O)/C(C#N)=C1/C(O)=C(C(=O)OC)C(C(=O)OC)=C1C(=O)OC |  | > 100 µM |  |  |  | > 100 µM |  | > 100 µM |  | > 100 µM |  | > 100 µM |  | > 100 µM |  | > 100 µM | > 100 µM | > 100 µM |  |  |
